{"source": "paper PMC4537157", "about": "(PLoS ONE, 2015)", "format_in_all_cases": "cell-based", "key": {"human newborn cord blood": {"system": "human newborn cord blood", "experiment": "Whole blood cytokine assay (TNF, IL-1β ELISA), newborn cord blood", "conditions": "6 h", "method": "(§1) Assessment of TLRA activity in whole blood was completed as previously described. […] Vehicle (DMSO) was added separately as a control. Suspensions containing 200 μl/well were gently mixed by pipetting and incubating for 6 h at 37°C in a humidified incubator at 5% CO2. After culture, plates were centrifuged at 500 x g and 100–150 μl of supernatant was carefully removed by pipetting without disturbing the cell pellet. Supernatants derived from human leukocyte stimulations were assayed by enzyme-linked immunoabsorbent assay (ELISA) for TNF (BD Biosciences, San Jose, CA, USA) and IL-1β (eBiosciences, San Diego, CA). Experiments were performed in triplicates.\n(§2) Compound concentrations are shown in μM. Data are shown as mean ± SEM of n = 6–8.\n(§3) Compound concentrations are shown in μM/ml. Cytokine production is shown as pg/ml. (PDF) Click here for additional data file."}, "[1]": {"system": "human adult peripheral blood", "experiment": "Whole blood cytokine assay (TNF, IL-1β ELISA), adult peripheral blood", "conditions": "6 h", "method": "as §1, §2, §3"}, "human newborn MoDCs": {"system": "human newborn MoDCs", "experiment": "TNF production by newborn monocyte-derived dendritic cells", "conditions": "human neonatal MoDCs, tested 0.1–10 μM, 24 h"}, "[2]": {"system": "human newborn and adult leukocytes", "experiment": "Whole blood and MoDC assays, overall potency as summarised in the discussion", "conditions": "Leukocyte, Tested in both whole blood and MoDC assays", "method": "as §1"}}, "data": [{"compound": "CCCCc1nc2c(N)nc3ccccc3c2n1Cc1cccc(CN)c1", "note": "[Meta-amine]", "values": [{"measurement": "IL-1β production", "setting": "human newborn cord blood; 0.01 µM", "value": 15.63, "unit": "pg/mL"}, {"measurement": "TNF-α production", "setting": "human newborn cord blood; 0.01 µM", "value": 79.15, "unit": "pg/mL"}, {"measurement": "IL-1β production", "setting": "human newborn cord blood; 0.03 µM", "value": 15.63, "unit": "pg/mL"}, {"measurement": "TNF-α production", "setting": "human newborn cord blood; 0.03 µM", "value": 78.72, "unit": "pg/mL"}, {"measurement": "IL-1β production", "setting": "human newborn cord blood; 0.1 µM", "value": 15.63, "unit": "pg/mL"}, {"measurement": "TNF-α production", "setting": "human newborn cord blood; 0.1 µM", "value": 94.65, "unit": "pg/mL"}, {"measurement": "IL-1β production", "setting": "human newborn cord blood; 0.3 µM", "value": 15.63, "unit": "pg/mL"}, {"measurement": "TNF-α production", "setting": "human newborn cord blood; 0.3 µM", "value": 93.72, "unit": "pg/mL"}, {"measurement": "IL-1β production", "setting": "human newborn cord blood; 1 µM", "value": 271.87, "unit": "pg/mL"}, {"measurement": "TNF-α production", "setting": "human newborn cord blood; 1 µM", "value": 1779.40, "unit": "pg/mL"}, {"measurement": "IL-1β production", "setting": "human newborn cord blood; 10 µM", "value": 6199.29, "unit": "pg/mL"}, {"measurement": "TNF-α production", "setting": "human newborn cord blood; 10 µM", "value": 32214.43, "unit": "pg/mL"}, {"measurement": "IL-1β production", "setting": "[1]; 0.01 µM", "value": 15.63, "unit": "pg/mL"}, {"measurement": "TNF-α production", "setting": "[1]; 0.01 µM", "value": 23.44, "unit": "pg/mL"}, {"measurement": "IL-1β production", "setting": "[1]; 0.03 µM", "value": 15.63, "unit": "pg/mL"}, {"measurement": "TNF-α production", "setting": "[1]; 0.03 µM", "value": 23.44, "unit": "pg/mL"}, {"measurement": "IL-1β production", "setting": "[1]; 0.1 µM", "value": 15.63, "unit": "pg/mL"}, {"measurement": "TNF-α production", "setting": "[1]; 0.1 µM", "value": 20.83, "unit": "pg/mL"}, {"measurement": "IL-1β production", "setting": "[1]; 0.3 µM", "value": 15.63, "unit": "pg/mL"}, {"measurement": "TNF-α production", "setting": "[1]; 0.3 µM", "value": 214.57, "unit": "pg/mL"}, {"measurement": "IL-1β production", "setting": "[1]; 1 µM", "value": 232.86, "unit": "pg/mL"}, {"measurement": "TNF-α production", "setting": "[1]; 1 µM", "value": 3739.68, "unit": "pg/mL"}, {"measurement": "IL-1β production", "setting": "[1]; 10 µM", "value": 2699.66, "unit": "pg/mL"}, {"measurement": "TNF-α production", "setting": "[1]; 10 µM", "value": 19087.54, "unit": "pg/mL"}]}, {"compound": "CCCCc1nc2c(N)nc3ccccc3c2n1Cc1ccc(CN)cc1", "note": "[Para-amine]", "values": [{"measurement": "IL-1β production", "setting": "human newborn cord blood; 0.01 µM", "value": 15.63, "unit": "pg/mL"}, {"measurement": "TNF-α production", "setting": "human newborn cord blood; 0.01 µM", "value": 64.05, "unit": "pg/mL"}, {"measurement": "IL-1β production", "setting": "human newborn cord blood; 0.03 µM", "value": 15.63, "unit": "pg/mL"}, {"measurement": "TNF-α production", "setting": "human newborn cord blood; 0.03 µM", "value": 120.31, "unit": "pg/mL"}, {"measurement": "IL-1β production", "setting": "human newborn cord blood; 0.1 µM", "value": 15.63, "unit": "pg/mL"}, {"measurement": "TNF-α production", "setting": "human newborn cord blood; 0.1 µM", "value": 70.49, "unit": "pg/mL"}, {"measurement": "IL-1β production", "setting": "human newborn cord blood; 0.3 µM", "value": 15.63, "unit": "pg/mL"}, {"measurement": "TNF-α production", "setting": "human newborn cord blood; 0.3 µM", "value": 381.52, "unit": "pg/mL"}, {"measurement": "IL-1β production", "setting": "human newborn cord blood; 1 µM", "value": 387.41, "unit": "pg/mL"}, {"measurement": "TNF-α production", "setting": "human newborn cord blood; 1 µM", "value": 1780.16, "unit": "pg/mL"}, {"measurement": "IL-1β production", "setting": "human newborn cord blood; 10 µM", "value": 2820.52, "unit": "pg/mL"}, {"measurement": "TNF-α production", "setting": "human newborn cord blood; 10 µM", "value": 16542.73, "unit": "pg/mL"}, {"measurement": "IL-1β production", "setting": "[1]; 0.01 µM", "value": 15.63, "unit": "pg/mL"}, {"measurement": "TNF-α production", "setting": "[1]; 0.01 µM", "value": 23.44, "unit": "pg/mL"}, {"measurement": "IL-1β production", "setting": "[1]; 0.03 µM", "value": 15.63, "unit": "pg/mL"}, {"measurement": "TNF-α production", "setting": "[1]; 0.03 µM", "value": 121.74, "unit": "pg/mL"}, {"measurement": "IL-1β production", "setting": "[1]; 0.1 µM", "value": 15.63, "unit": "pg/mL"}, {"measurement": "TNF-α production", "setting": "[1]; 0.1 µM", "value": 856.34, "unit": "pg/mL"}, {"measurement": "IL-1β production", "setting": "[1]; 0.3 µM", "value": 15.63, "unit": "pg/mL"}, {"measurement": "TNF-α production", "setting": "[1]; 0.3 µM", "value": 3653.12, "unit": "pg/mL"}, {"measurement": "IL-1β production", "setting": "[1]; 1 µM", "value": 419.70, "unit": "pg/mL"}, {"measurement": "TNF-α production", "setting": "[1]; 1 µM", "value": 6740.50, "unit": "pg/mL"}, {"measurement": "IL-1β production", "setting": "[1]; 10 µM", "value": 2008.09, "unit": "pg/mL"}, {"measurement": "TNF-α production", "setting": "[1]; 10 µM", "value": 18165.00, "unit": "pg/mL"}]}, {"compound": "CCOCc1nc2c(N)nc3ccccc3c2n1CC(C)(C)O", "note": "[R848, resiquimod, reference compound]", "values": [{"measurement": "IL-1β production", "setting": "human newborn cord blood; 0.01 µM", "value": 15.63, "unit": "pg/mL"}, {"measurement": "TNF-α production", "setting": "human newborn cord blood; 0.01 µM", "value": 95.80, "unit": "pg/mL"}, {"measurement": "IL-1β production", "setting": "human newborn cord blood; 0.03 µM", "value": 15.63, "unit": "pg/mL"}, {"measurement": "TNF-α production", "setting": "human newborn cord blood; 0.03 µM", "value": 84.29, "unit": "pg/mL"}, {"measurement": "IL-1β production", "setting": "human newborn cord blood; 0.1 µM", "value": 46.36, "unit": "pg/mL"}, {"measurement": "TNF-α production", "setting": "human newborn cord blood; 0.1 µM", "value": 68.30, "unit": "pg/mL"}, {"measurement": "IL-1β production", "setting": "human newborn cord blood; 0.3 µM", "value": 15.63, "unit": "pg/mL"}, {"measurement": "TNF-α production", "setting": "human newborn cord blood; 0.3 µM", "value": 210.98, "unit": "pg/mL"}, {"measurement": "IL-1β production", "setting": "human newborn cord blood; 1 µM", "value": 415.65, "unit": "pg/mL"}, {"measurement": "TNF-α production", "setting": "human newborn cord blood; 1 µM", "value": 654.85, "unit": "pg/mL"}, {"measurement": "IL-1β production", "setting": "human newborn cord blood; 10 µM", "value": 322.08, "unit": "pg/mL"}, {"measurement": "TNF-α production", "setting": "human newborn cord blood; 10 µM", "value": 1574.58, "unit": "pg/mL"}, {"measurement": "IL-1β production", "setting": "[1]; 0.01 µM", "value": 15.63, "unit": "pg/mL"}, {"measurement": "TNF-α production", "setting": "[1]; 0.01 µM", "value": 23.44, "unit": "pg/mL"}, {"measurement": "IL-1β production", "setting": "[1]; 0.03 µM", "value": 15.63, "unit": "pg/mL"}, {"measurement": "TNF-α production", "setting": "[1]; 0.03 µM", "value": 23.44, "unit": "pg/mL"}, {"measurement": "IL-1β production", "setting": "[1]; 0.1 µM", "value": 14.94, "unit": "pg/mL"}, {"measurement": "TNF-α production", "setting": "[1]; 0.1 µM", "value": 284.13, "unit": "pg/mL"}, {"measurement": "IL-1β production", "setting": "[1]; 0.3 µM", "value": 15.63, "unit": "pg/mL"}, {"measurement": "TNF-α production", "setting": "[1]; 0.3 µM", "value": 549.52, "unit": "pg/mL"}, {"measurement": "IL-1β production", "setting": "[1]; 1 µM", "value": 191.49, "unit": "pg/mL"}, {"measurement": "TNF-α production", "setting": "[1]; 1 µM", "value": 3939.41, "unit": "pg/mL"}, {"measurement": "IL-1β production", "setting": "[1]; 10 µM", "value": 1922.12, "unit": "pg/mL"}, {"measurement": "TNF-α production", "setting": "[1]; 10 µM", "value": 19454.73, "unit": "pg/mL"}, {"measurement": "Concentration inducing TNF", "setting": "human newborn MoDCs", "value": "1 to 10", "unit": "µM"}, {"measurement": "EC50", "setting": "[2]", "value": 1000, "unit": "nM"}]}]}
